Where two headings read alike, the source gives them in different places.
Type: physicochemical
Conditions: prior to aerosolization

Row | SMILES | liquid analysis, content (formulation containing 1-menthol (83.1% water, 15.0% 2-hydroxy-propyl-β-cyclodextrin, 0.9% 1-menthol, 1% nicotine)) | liquid analysis, content (formulation containing 1-menthol) [mg/g] | liquid analysis, content (formulation containing vanillin) [mg/g]
1 | CC1CCC(C(C)C)C(O)C1 (stereo not drawn) [1-menthol] | 0.8 % (w/w) | 8 | 
2 | COc1cc(C=O)ccc1O [vanillin] |  |  | 5
